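How tested: cells in 96-well plates exposed to compound for 48 hours at five concentrations. The concentration for full growth arrest is given as TGI.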

Common to all, as to test: NCI-60 cell line screen, 48 h
Experiment [1] deals with TK-10 renal.
The test system of experiment [2] is HS 578T breast.
Experiment [3] concerns M14 melanoma.
The subject of experiment [4] is U251 CNS.
Experiment [5] deals with HOP-62 NSCLC.
For experiment [6], the system named is MDA-MB-435.
Experiment [7] concerns NCI/ADR-RES ovarian.
Experiment [8] relates to PC-3 prostate.
The test system of experiment [9] is OVCAR-4 ovarian.
The test system of experiment [10] is UO-31 renal.
The test system of experiment [11] is SR leukemia.

As to `CCc1c(-c2ccc(OC)cc2)oc(OC)c(C)c1=O`, the TGI in experiment [1], in [2], in experiment [3], in experiment [4], in experiment [5] and in experiment [6] was over 100 µM throughout. For the same molecule, the TGI in [7], in [8], in experiment [9] and in [10] was over 100 µM throughout.
Consider `CC(=O)OC1[C@H](OC(C)=O)C2=C(C)[C@@H](OC(C)=O)C[C@@]2(C(C)(C)O)[C@@H](OC(C)=O)[C@H]2[C@@]1(C)[C@@H](OC(C)=O)CC(OC(C)=O)[C@]21CO1` (stereo not given in full), for which the TGI in [1], in experiment [2], in experiment [3], in experiment [4], in experiment [5] and in experiment [6] was over 100 µM throughout. The TGI in experiment [11], in experiment [8], in experiment [9] and in experiment [10] was over 100 µM in each case.
Turning to `C=C(Cl)C(Cl)(CCl)CCC(Br)C(C)(C)Br` (stereo not given), the TGI in [1], in experiment [3], in experiment [4], in experiment [5], in [6] and in experiment [11] was over 10 µM each time. The TGI in experiment [8], in experiment [9] and in experiment [10] was over 10 µM each time.
With `O=c1c(Cc2ccc(Cl)cc2)nnc2sc(-c3ccc(-c4ccc(Cl)cc4Cl)o3)nn12`, the TGI in [1], in experiment [2], in experiment [3], in [4], in experiment [5] and in experiment [6] was over 100 µM in each case. Moreover, the TGI in experiment [7], in experiment [8], in experiment [9] and in [10] was over 100 µM throughout.
With `Brc1cccc(C2ON=C(c3ccccc3)N2C23CC4CC(CC(C4)C2)C3)c1` (stereo not given), the TGI in [1], in experiment [2], in [3], in [4], in experiment [5] and in experiment [6] was over 10 µM in each case. The TGI in experiment [7], in experiment [8], in experiment [9] and in experiment [10] was over 10 µM each time.
Consider `COC1C(N(C)C)=C(c2ccccc2)C(=O)N2CCc3ccccc3C12` (stereo not given), for which the TGI in [1], in [2], in [3], in experiment [4], in experiment [5] and in experiment [6] was over 100 µM in each case. In addition, the TGI in [7], in experiment [8], in [9] and in [10] was over 100 µM in each case.
As for `COc1nc2ccc(COc3ccc(C(=O)O)cc3)cc2nc1OC`, the TGI in experiment [3], in [4], in experiment [5], in experiment [6], in experiment [7] and in [11] was over 100 µM in each case. For the same molecule, the TGI in experiment [8], in experiment [9] and in [10] was over 100 µM in each case.
For the molecule `Cc1nc2cc(Nc3ccccc3C(=O)O)ccc2s1`, the TGI in experiment [1], in experiment [3], in experiment [4], in experiment [5], in [11] and in experiment [9] was over 100 µM each time. The molecule also gave a TGI in experiment [10] of over 100 µM.
As to `CCn1c(CCl)nc2c1C(=O)c1ccccc1C2=O`, the TGI in experiment [1] turned out to be 8.73 µM; in [2], 6.24 µM; in [3] it was 3.22 µM; in [4], 3.12 µM; in experiment [5], 4.95 µM; in experiment [6], 3.12 µM. Besides, the TGI in experiment [7] came out at 6.5 µM; in experiment [8] it was 4.53 µM; in experiment [9] it was 3.08 µM.
On to `C[C@H](CCC1SC1(C)C)C1CCC2(C)C3=C(CC[C@]12C)[C@@]1(C)CC[C@H](O)C(C)(C)C1CC3` (stereo not given in full), for which the TGI in experiment [1], in experiment [3], in experiment [5], in experiment [11], in experiment [9] and in experiment [10] was over 100 µM each time.
Regarding `C#CCN(Cc1ccc2nc(-c3ccccc3)c(N)nc2c1)c1cc(OC)c(OC)c(OC)c1`, the TGI in experiment [1] was over 100 µM; in [3], 93.7 µM; in experiment [4] it was over 100 µM; in experiment [5], over 100 µM; in experiment [11] it was 39.2 µM; in [9], over 100 µM. In addition, in experiment [10], the TGI was found to be 69.3 µM.
On to `COc1cc(-c2c3c(cc4c2OCO4)[C@@H](Nc2ccc(-c4ccc(-c5ccc(N[C@@H]6c7cc8c(cc7C(c7cc(OC)c(O)c(OC)c7)[C@H]7C(=O)OC[C@H]67)OCO8)cc5)cc4)cc2)[C@H]2COC(=O)[C@@H]2C3)cc(OC)c1O` (stereo not given in full), for which the TGI was 8.59 µM in experiment [1]; over 100 µM in experiment [2]; 4.11 µM in experiment [3]; 10.1 µM in experiment [4]; 8.81 µM in experiment [5]; 3.86 µM in experiment [6]. The results for the TGI in experiment [7], in experiment [8] and in experiment [10] were 5.92 µM, 8.37 µM and 13.1 µM, respectively.
Consider `O=C(Nc1ccc(S(=O)(=O)/N=c2\ncccn2C(=O)C(C(F)(F)F)C(F)(F)F)cc1)C(C(F)(F)F)C(F)(F)F`, for which the TGI in [1], in experiment [2], in experiment [3], in experiment [4], in experiment [5] and in experiment [6] was over 100 µM throughout. The TGI in [7], in experiment [8] and in experiment [9] was over 100 µM in each case.
With `COc1ccccc1C1(c2c(OC)c(=O)c2=O)SCCCS1`, the TGI in [1], in experiment [2], in experiment [3], in [4], in [5] and in experiment [6] was over 100 µM in each case. Moreover, the TGI in experiment [7], in [8], in experiment [9] and in [10] was over 100 µM each time.

Source of the values: PubChem BioAssay (NCI).
